From patent publication US7807673B2, “2-pyrimidinyl pyrazolopyridine ErbB kinase inhibitors” (GlaxoSmithKline LLC, priority 2005, dated 2010)

Experiments:
Colo205 tumor cell lines = experiment: Celltiter Glo growth inhibition assay (cellular Method B); assay type: cell-based; conditions: Homo sapiens, COLO 205, 72 h, Table 3, Method B Celltiter Glo, 3 days
Procedure: (§1) Human breast tumor cells (BT474) were cultured in RPMI, (Invitrogen, 22400) containing 10% fetal bovine serum (FBS). Human head and neck tumor cells (HN5) were cultured in low glucose DMEM (Invitrogen, 12320) containing 10% FBS. Human colon tumor cells (Colo205) were cultured in DMEM (Invitrogen, 10564) containing 10% FBS. All cell lines were maintained at 37° C. in a humidified 5% CO2, 95% air incubator. Cells were harvested using trypsin/EDTA, counted using a haemocytometer, and plated in 30 microliters of the appropriate media described above, at the following densities, in a half area, black-walled, 96-well tissue culture plate (Corning 3882): BT474 3,000 cells/well, HN5 500 cells/well and Colo205 cells, 3,000 cells/well. The next day, compounds were diluted in DMEM containing 100 mg/ml gentamicin, from 10 mM stock solutions in DMSO. 30 microliters/well of these dilutions were added to the 30 microliters/well of media currently on the cell plates. Medium containing 0.6% DMSO was added to control wells. The final concentration of DMSO in all wells was 0.3%. Cells were incubated at 37° C., 5% CO2 for 3 days. Cell biomass was estimated using Celltiter Glo (Promega G7571). Briefly, plates were removed from the incubator and allowed to equilibrate to rt for 30 minutes. 60 microliters of Celltiter Glo reagent were added to each well of the treated cells and plates were shaken on an orbital plate shaker for 2 min. Plates were incubated without shaking for 30 more min and read in a luminometer with an integration time of 0.5 seconds per well. Percent inhibition of cell growth was calculated relative to vehicle treated control wells. Concentration of compound that inhibits 50% of vehicle control cell growth (IC50) was interpolated using nonlinear regression (Levenberg-Marquardt) and the equation, y=Vmax*(1−(x/(K+x)))+Y2, where “K” was equal to the IC50.

[1] = test system: BT474 and HN5 tumor cell lines; experiment: as above; assay type: cell-based; conditions: Homo sapiens, BT-474, 72 h; Table 2, Method B Celltiter Glo, 3 days; class over BT474 and HN5;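 note: class counts the more potent of the two cell lines (BT474 or HN5)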
Procedure: as §1

ErbB2 or EGFR = biological target: T1, ErbB2 or EGFR; experiment: ErbB enzyme substrate phosphorylation assay (HTRF), Method B (enzyme pre-incubated with compound 1 hour); assay type: biochemical; conditions: Table 1, enzyme Method B: enzyme mix incubated with compound 1 hour at 20° C., reaction started with substrate mix; class over ErbB2 or EGFR
T1 construct: enzymes purified from a baculovirus expression system
Procedure: Compounds of the present invention were tested for EGFR, ErbB-2, and ErbB-4 protein tyrosine kinase inhibitory activity in substrate phosphorylation assays using enzymes purified from a baculovirus expression system. Reagent production was conducted essentially as described in Brignola, P. S., et al, (2002) J. Biol. Chem. 277(2): 1576-1585.
The method measures the ability of the isolated enzyme to catalyse the transfer of the gamma-phosphate from ATP onto the tyrosine residue of a biotinylated synthetic peptide referenced “Peptide C” in Brignola, P. S., et al, (2002) J. Biol. Chem. 277(2):1576-1585. The extent of tyrosine phosphorylation was measured using an anti-phosphotyrosine antibody, and quantified by homogenous time-resolved fluorescence (HTRF).
Reactions were performed in black 384-well polystyrene flat-bottom plates in a final volume of 20 μl. Assays were performed by adding 10 μl of each of the following solutions, substrate Mix and enzyme mix: The Substrate mix contained 100 mM 3-[N-morpholino]propanesulfonic acid (MOPS) (pH 7.5), 2 mM MnCl2, 20 μM ATP, 0.01% Tween-20, 0.1 mg/mL (BSA), 0.8 uM peptide substrate, and 1 mM dithiothreitol. The enzyme mix contained 100 mM MOPS (pH7.5); 0.01% Tween-20; 0.1 mg/mL BSA, and either 0.8 nM EGFR, 10 nM ErbB2, or 1 nM ErbB4
During the course of these studies, two separate methods have been used to measure the potency of compounds. In Method A, the substrate mix was added to the compound plates first, then the reaction was started by adding the enzyme mix. In Method B, the enzyme mix was added to the compound plates and the plates were incubated at 20° C. for 1 hour. The reactions were then started by adding the substrate mix.
After initiating the reaction with either method describe above, the reactions were allowed to proceed for 90 minutes at 20° C. The reactions were then terminated by the addition of 20 μl 100 mM EDTA to each well. 40 μl/well of HTRF detection mix were added to the assay plates. The final concentrations of the detection reagents were: 100 mM HEPES (pH7.5), 0.1 mg/mL BSA, 15 nM streptavidin-labeled allophycocyanin (PerkinElmer), and 1 nM europium-labeled anti-phosphotyrosine antibody (PerkinElmer). Assay plates were left unsealed and were counted in a Wallac Multilabel Counter 1420 (PerkinElmer).
Compounds under analysis were dissolved in Me2SO to 1.0 mM and serially diluted 1 to 3 with Me2SO through twelve dilutions. 1 μl of each concentration was transferred to the corresponding well of an assay plate. This creates a final compound concentration range from 0.00027 to 47.6 μM.
The data for dose responses were plotted as % Inhibition calculated with the data reduction formula 100*(1−(U1−C2)/(C1−C2)) versus concentration of compound where U is the unknown value, C1 is the average control value obtained for 4.76% DMSO, and C2 is the average control value obtained for 0.035 M EDTA. Data were fitted with a curve described by: y=((Vmax*x)/(K+x))+Y2 where Vmax is the upper asymptote, Y2 is the Y intercept, and K is the IC50. The results for each compound were recorded as pIC50s, calculated as follows: pIC50=−Log 10(K)

| Structure (SMILES) | IC50 (Colo205 tumor cell lines) [nM] | IC50 [1] [nM] | Activity (Method) (ErbB2 or EGFR) |
| --- | --- | --- | --- |
| CN(C)Cc1cccc(Nc2nccc(-c3c(-c4cccc(NC(=O)Cc5cccs5)c4)nn4ccccc34)n2)c1 [Example 7, N-(3-{3-[2-({3-[(Dimethylamino)methyl]phenyl}amino)-4-pyrimidinyl]pyrazolo[1,5-a]pyridin-2-yl}phenyl)-2-(2-thienyl)acetamide] | 100 to 1000 | 100 to 1000 | +++ (B) (at least one pIC50 measurement of greater than 7 against either ErbB2 or EGFR) |
| CN1CCc2ccc(Nc3nccc(-c4c(-c5cccc(NC(=O)Cc6cccs6)c5)nn5ccccc45)n3)cc2C1 [Example 8] |  |  | +++ (B) (at least one pIC50 measurement of greater than 7 against either ErbB2 or EGFR) |
| Cc1ncoc1-c1cccc(Nc2nccc(-c3c(-c4cccc(NC(=O)Cc5cccs5)c4)nn4ccccc34)n2)c1 [Example 52, N-{3-[3-(2-{[3-(4-methyl-1,3-oxazol-5-yl)phenyl]amino}pyrimidin-4-yl)pyrazolo[1,5-a]pyridin-2-yl]phenyl}-2-(2-thienyl)acetamide] | 100 to 1000 | 100 to 1000 |  |
| Cc1c(Nc2nccc(-c3c(-c4ccc(F)c(NC(=O)Cc5cccs5)c4)nn4ccccc34)n2)cccc1OCCN(C)C [Example 60, N-[5-(3-{2-[(3-{[2-(Dimethylamino)ethyl]oxy}-2-methylphenyl)amino]-4-pyrimidinyl}pyrazolo[1,5-a]pyridin-2-yl)-2-fluorophenyl]-2-(2-thienyl)acetamide] |  |  | ++ (B) (at least one pIC50 measurement greater than 6 against either ErbB2 or EGFR but no measurement greater than pIC50 of 7) |
| CN1CCc2ccc(Nc3nccc(-c4c(-c5ccc(F)c(NC(=O)Cc6cccs6)c5)nn5ccccc45)n3)cc2C1 [Example 63, N-[2-Fluoro-5-(3-{2-[(2-methyl-1,2,3,4-tetrahydro-7-isoquinolinyl)amino]-4-pyrimidinyl}pyrazolo[1,5-a]pyridin-2-yl)phenyl]-2-(2-thienyl)acetamide] |  |  | +++ (B) (at least one pIC50 measurement of greater than 7 against either ErbB2 or EGFR) |
| COc1ccc(-c2nn3ccccc3c2-c2ccnc(Nc3cccc(OCCN(C)C)c3C)n2)cc1NC(=O)Cc1cccs1 [Example 64, N-[5-(3-{2-[(3-{[2-(Dimethylamino)ethyl]oxy}-2-methylphenyl)amino]-4-pyrimidinyl}pyrazolo[1,5-a]pyridin-2-yl)-2-(methyloxy)phenyl]-2-(2-thienyl)acetamide] |  |  | + (B) (no pIC50 measurement greater than 6 against either ErbB2 or EGFR) |
| COc1ccc(-c2nn3ccccc3c2-c2ccnc(Nc3cccc(OCCN(C)C)c3)n2)cc1NC(=O)Cc1cccs1 [Example 65, N-[5-(3-{2-[(3-{[2-(Dimethylamino)ethyl]oxy}phenyl)amino]-4-pyrimidinyl}pyrazolo[1,5-a]pyridin-2-yl)-2-(methyloxy)phenyl]-2-(2-thienyl)acetamide] |  |  | + (B) (no pIC50 measurement greater than 6 against either ErbB2 or EGFR) |
| COc1ccc(-c2nn3ccccc3c2-c2ccnc(Nc3cc(OCCN(C)C)ccc3C)n2)cc1NC(=O)Cc1cccs1 [Example 66, N-[5-(3-{2-[(5-{[2-(Dimethylamino)ethyl]oxy}-2-methylphenyl)amino]-4-pyrimidinyl}pyrazolo[1,5-a]pyridin-2-yl)-2-(methyloxy)phenyl]-2-(2-thienyl)acetamide] |  |  | + (B) (no pIC50 measurement greater than 6 against either ErbB2 or EGFR) |
| COc1ccc2c(-c3ccnc(Nc4cccc(OCCN(C)C)c4)n3)c(-c3cccc(NC(=O)C4(c5ccccc5)CC4)c3)nn2c1 [Example 67, N-{3-[3-{2-[(3-{[2-(Dimethylamino)ethyl]oxy}phenyl)amino]-4-pyrimidinyl}-6-(methyloxy)pyrazolo[1,5-a]pyridin-2-yl]phenyl}-1-phenylcyclopropanecarboxamide] |  |  | ++ (B) (at least one pIC50 measurement greater than 6 against either ErbB2 or EGFR but no measurement greater than pIC50 of 7) |
| COc1ccc2c(-c3ccnc(Nc4cccc(OCCN(C)C)c4)n3)c(-c3cccc(NC(=O)/C=C/c4ccccc4)c3)nn2c1 [Example 68, (2E)-N-{3-[3-{2-[(3-{[2-(Dimethylamino)ethyl]oxy}phenyl)amino]-4-pyrimidinyl}-6-(methyloxy)pyrazolo[1,5-a]pyridin-2-yl]phenyl}-3-phenyl-propenamide] |  |  | +++ (B) (at least one pIC50 measurement of greater than 7 against either ErbB2 or EGFR) |
| COc1ccc2c(-c3ccnc(Nc4cccc(OCCN(C)C)c4)n3)c(-c3cccc(NC(=O)NCc4ccc(F)cc4)c3)nn2c1 [Example 70, N-{3-[3-{2-[(3-{[2-(Dimethylamino)ethyl]oxy}phenyl)amino]-4-pyrimidinyl}-6-(methyloxy)pyrazolo[1,5-a]pyridin-2-yl]phenyl}-N-[(4-fluorophenyl)methyl]urea] |  |  | +++ (B) (at least one pIC50 measurement of greater than 7 against either ErbB2 or EGFR) |
| Cc1ccc2c(-c3ccnc(Nc4cccc(CN5CCCC5)c4)n3)c(-c3cccc(NC(=O)Cc4cccs4)c3)nn2c1 [Example 71, N-{3-[6-Methyl-3-(2-{[3-(1-pyrrolidinylmethyl)phenyl]amino}-4-pyrimidinyl)pyrazolo[1,5-a]pyridin-2-yl]-phenyl}-2-(2-thienyl)acetamide] |  |  | +++ (B) (at least one pIC50 measurement of greater than 7 against either ErbB2 or EGFR) |
| Cc1ccc2c(-c3ccnc(Nc4cccc(OCCN(C)C)c4)n3)c(-c3cccc(NC(=O)Cc4cccs4)c3)nn2c1 [Example 72, N-[3-(3-{2-[(3-{[2-(Dimethylamino)ethyl]oxy}phenyl)amino]-4-pyrimidinyl}-6-methylpyrazolo[1,5-a]pyridin-2-yl)phenyl]-2-(2-thienyl)acetamide] |  |  | +++ (B) (at least one pIC50 measurement of greater than 7 against either ErbB2 or EGFR) |
| CC(=O)N1CCN(c2ccc(Nc3nccc(-c4c(-c5cccc(NC(=O)Cc6cccs6)c5)nn5cc(C)ccc45)n3)cc2)CC1 [Example 73, N-{3-[3-(2-{[4-(4-Acetyl-1-piperazinyl)phenyl]amino}-4-pyrimidinyl)-6-methylpyrazolo[1,5-a]pyridin-2-yl]phenyl}-2-(2-thienyl)acetamide] |  |  | +++ (B) (at least one pIC50 measurement of greater than 7 against either ErbB2 or EGFR) |
